Source: US20220016196A1, “Aloe Based Compositions Comprising Polysaccharides and Polyphenols for Regulation of Homeostasis of Immunity” (Unigen, Inc., priority 2020, published 2022)

Assays:
C Reactive Protein (CRP) = assay: LPS-induced acute lung injury, BAL C Reactive Protein ELISA; type: in vivo, rat; conditions: rats
Description: (§1) The study was designed to evaluate the direct impact of an Aloe-based composition (UP360) made in the Example 9 in alleviating LPS-induced acute lung injury administered orally at 500 mg/kg and 250 mg/kg. […] In this study, we treated rats with the test materials orally for 7 days before model induction with LPS. On the 8th day, an hour after oral treatment, LPS was instilled intratracheally (i.t.) at 10 mg/kg dissolved in 0.1 mL/100 g PBS to each rat. The normal control rats received the same volume i.t. PBS only.
(§2) We sacrificed surviving animals 24 hours after intratracheal LPS administration to the rats. At necropsy, collected bronchoalveolar lavage (BAL) by intratracheal injection of 1.5 mL PBS into the right lobe followed by gentle aspiration at least 3 times. Pooled recovered fluid, centrifuged at 1500 rpm for 10 min at 4 ° C., and was used to measure cytokines (e.g. IL-6) and pulmonary protein levels. […]
The presence of C Reactive Protein (CRP) in rat BAL diluted 1:1,000 was measured using the C Reactive Protein (PTX1) Rat ELISA kit from Abcam (product #: ab108827) as follows: 1:1,000 diluted BAL was added to a microplate coated with CRP antibody. […] After developing for 10 minutes at room temperature, a stop solution was added, and the absorbance was read at 450 nm. The concentration of CRP was calculated based on the absorbance readings of a CRP standard curve.

IL-10 = assay: LPS-induced acute lung injury, BAL IL-10 ELISA; type: in vivo, rat; conditions: rats, LPS 10 mg/kg i.t., 24 hours post, oral, 500 mg/kg
Description: as §1, §2
The presence of IL-10 in undiluted broncho-alveolar lavage (BAL) samples from Example 23 was measured using the Rat IL-10 Quantikine ELISA kit from R&D Systems (product #: R1000) as follows: undiluted BAL was added to a microplate coated with IL-10 antibody. […] After developing for 30 minutes at room temperature, a stop solution was added, and the absorbance was read at 450 nm. The concentration of IL-10 was calculated based on the absorbance readings of an IL-10 standard curve.

CCCC(=O)[O-].[Na+] [Sodium Butyrate]
BAL CRP level, Mean ± SD (C Reactive Protein (CRP); LPS 10 mg/kg i.t., 24 hours post, oral, 500 mg/kg): 20093.5 ± 8826.1 pg/mL
reduction of BAL CRP vs vehicle (C Reactive Protein (CRP); LPS i.t., 500 mg/kg oral): minimal changes
BAL IL-10 level, Mean ± SD (IL-10): 154.84 ± 159.63 pg/mL
